From ChEMBL document CHEMBL1131693, “Synthesis and methemoglobin toxicity of the amides of 6/7 mono or disubstituted quinolone” (1999)

Experiments:
[1] = species on record: Canis lupus familiaris; assay: In vitro activity against canine methemoglobin reductase at 33 uM; set-up: unit not given here
[2] = species on record: Canis familiaris; assay: In vitro activity on methemoglobin formation at 5 mM concentration in blood from a normal Beagle dog; type: functional, Canis lupus familiaris
[3] = species on record: Canis familiaris; assay: In vitro activity on methemoglobin formation at 1 mM concentration in blood from a normal Beagle dog; Nil; type: functional
[4] = species on record: Canis familiaris; assay: In vitro activity on methemoglobin formation at 1 mM concentration in blood from a normal Beagle dog; type: functional, Canis lupus familiaris
[5] = species on record: Canis familiaris; assay: In vitro activity on methemoglobin formation at 5 mM concentration in blood from a normal Beagle dog; Nil; type: functional; conditions: Canis lupus familiaris

| SMILES | Activity [1] | Methemoglobin [2] [%] | Methemoglobin ([3]; Canis lupus familiaris) | Methemoglobin [4] [%] | Methemoglobin [5] | Methemoglobin [3] [%] |
| --- | --- | --- | --- | --- | --- | --- |
| CCN(CC)CCCC(C)NC(=O)c1cnc2cc(Cl)c(F)cc2c1O (stereo unspecified) | 0.064 | 16.9 | Nil | – | – | – |
| O=C(NC1CCCCC1)c1cnc2ccc([N+](=O)[O-])cc2c1O | 0.064 | 6.8 | Nil | – | – | – |
| CCN(CC)CCCC(C)NC(=O)c1cnc2ccc(F)cc2c1O (stereo unspecified) | 0.064 | 22.4 | – | 1.7 | – | – |
| CCN(CC)CCCC(C)NC(=O)c1cnc2ccc([N+](=O)[O-])cc2c1O (stereo unspecified) | 0.064 | 5.17 | Nil | – | – | – |
| CN1CCN(C(=O)c2cnc3ccc(F)cc3c2O)CC1 | 0.064 | 2 | Nil | – | – | – |
| O=C(NC1CCCCC1)c1cnc2ccc(F)cc2c1O | 0.064 | 1.5 | Nil | – | – | – |
| CN1CCN(C(=O)c2cnc3ccc([N+](=O)[O-])cc3c2O)CC1 | 0.064 | 8.6 | Nil | – | – | – |
| CCCCCCCCNC(=O)c1cnc2ccc([N+](=O)[O-])cc2c1O | 0.064 | 7.7 | Nil | – | – | – |
| CN1CCN(C(=O)c2cnc3cc(Cl)c(F)cc3c2O)CC1 | 0.064 | – | Nil | – | Nil | – |
| O=C(NC1CCCCC1)c1cnc2cc(Cl)c(F)cc2c1O | 0.064 | – | Nil | – | Nil | – |
| CCCCCCCCNC(=O)c1cnc2cc(Cl)c(F)cc2c1O | 0.064 | 29.3 | – | – | – | 1.7 |
| CCCCCCCCNC(=O)c1cnc2ccc(F)cc2c1O | 0.064 | 18.9 | Nil | – | – | – |
